# Experimental data as given in the supplement of paper PMC10331698.
# ± gives the standard deviation of the averaged measurements.
# How the values were obtained:
# Assay in all cases: level (log10 ratio to DMSO vehicle control); higher = higher biomarker level / cell amount than vehicle control
# Settings in all cases: in DMSO
# [1] = compound: C=CC(=O)OCC(F)(F)C(F)(F)C(F)(F)C(F)(F)C(F)(F)C(F)(F)C(F)(F)F [1H,1H-Perfluorooctyl acrylate]
# Description: (§1)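 BioMAP Diversity Plus panel of 12 human primary cell co-culture systems (3C, 4H, LPS, SAg, BT, BF4T, BE3C, CASM3C, HDF3CGF, KF3CT, MyoF, Mphg). Compounds were added 1 h before stimulation and left for 24 h (MyoF 48 h; BT 72 h for soluble read-outs or 6 d for IgG). Biomarkers were read by ELISA, cytotoxicity by SRB, PBMC viability and proliferation by Alamar Blue. Each well value was divided by the mean of 8 DMSO control wells on the same plate and log10 transformed; duplicate blinded samples were tested at 4 concentrations.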
# [2] = compound: CCN(CCO)S(=O)(=O)C(F)(F)C(F)(F)C(F)(F)C(F)(F)C(F)(F)C(F)(F)C(F)(F)C(F)(F)F [N-Ethyl-N-(2-hydroxyethyl)perfluorooctanesulfonamide]
# Description: as §1
# [3] = compound: COC(=O)CCC(F)(F)C(F)(F)C(F)(F)C(F)(F)F [Methyl 2H,2H,3H,3H-perfluoroheptanoate]
# Description: as §1
# Perfluoro-1-iodohexane = compound: FC(F)(F)C(F)(F)C(F)(F)C(F)(F)C(F)(F)C(F)(F)I [Perfluoro-1-iodohexane]
# Description: as §1
# [4] = compound: NCC(F)(F)C(F)(F)C(F)(F)C(F)(F)C(F)(F)C(F)(F)C(F)(F)F [1H,1H-Perfluorooctylamine]
# Description: as §1
# [5] = compound: O=C(O)C(F)(F)C(F)(F)C(F)(F)OC(F)(C(F)(F)F)C(F)(F)F [Perfluoro-4-isopropoxybutanoic acid]
# Description: as §1
# [6] = compound: OCC(F)(F)OC(F)(F)C(F)(F)OC(F)(F)CO [1H,1H,8H,8H-Perfluoro-3,6-dioxaoctane-1,8-diol]
# Description: as §1
Test System,level (log10) ([1]; 6700 nM),level (log10) ([1]; 20000 nM),level (log10) ([1]; 60000 nM),level (log10) ([2]; 6700 nM),level (log10) ([2]; 20000 nM),level (log10) ([3]; 6700 nM),level (log10) ([3]; 20000 nM),level (log10) ([3]; 60000 nM),level (log10) (Perfluoro-1-iodohexane; 6700 nM),level (log10) (Perfluoro-1-iodohexane; 20000 nM),level (log10) (Perfluoro-1-iodohexane; 60000 nM),level (log10) ([4]; 6700 nM),level (log10) ([4]; 20000 nM),level (log10) ([4]; 60000 nM),level (log10) ([5]; 6700 nM),level (log10) ([5]; 20000 nM),level (log10) ([5]; 60000 nM),level (log10) ([6]; 6700 nM),level (log10) ([6]; 20000 nM),level (log10) ([6]; 60000 nM)
SAg:CD69,-0.0205 ± 0.021,-0.024 ± 0.011,-0.035 ± 0.018,-0.043 ± 0.016,-0.085 ± 0.04,-0.0375 ± 0.035,-0.0225 ± 0.019,-0.0085 ± 0.05,-0.0155 ± 0.033,-0.017 ± 0.024,0.006 ± 0.0014,-0.0095 ± 0.0092,0.0005 ± 0.0035,0.006 ± 0.016,-0.0085 ± 0.00071,-0.0055 ± 0.005,-0.016 ± 0.0042,0.0065 ± 0.0064,0.015 ± 0.016,-0.0145 ± 0.013
BF4T:CCL26/Eotaxin-3,-0.008 ± 0.016,-0.019 ± 0.03,-0.036 ± 0.031,0.0905 ± 0.029,0.141 ± 0.0028,-0.0095 ± 0.005,-0.0175 ± 0.0092,-0.016 ± 0.0042,0.0255 ± 0.0035,0.0135 ± 0.015,-0.0145 ± 0.059,0.0175 ± 0.049,-0.0085 ± 0.016,0.037 ± 0.037,-0.0055 ± 0.09,-0.0185 ± 0.069,-0.0105 ± 0.016,0.0155 ± 0.0092,0.005 ± 0.035,0.024 ± 0.044
SAg:Proliferation,0.004 ± 0.0042,-0.045 ± 0.047,-0.128 ± 0.038,-0.098 ± 0.0057,-0.335 ± 0.098,0.0115 ± 0.029,0.001 ± 0.0014,0.0075 ± 0.0078,-0.031 ± 0.044,-0.055 ± 0.02,-0.0395 ± 0.04,-0.004 ± 0.024,-0.0195 ± 0.019,-0.174 ± 0.24,-0.018 ± 0.0042,-0.007 ± 0.0028,0.0175 ± 0.04,-0.025 ± 0.013,-0.0195 ± 0.023,-0.0055 ± 0.015
BE3C:EGFR,0.016 ± 0.0071,0.01 ± 0.025,0.02 ± 0.011,-0.02 ± 0.0014,-0.072 ± 0.0057,-0.029 ± 0.021,0.008 ± 0.0042,-0.022 ± 0.0071,0.0095 ± 0.00071,-0.0055 ± 0.0021,0.0285 ± 0.013,-0.005 ± 0.0099,-0.018 ± 0.0057,0.003 ± 0.0014,0.012 ± 0.027,0.0075 ± 0.005,0.044 ± 0.042,0.0085 ± 0.012,-0.0025 ± 0.021,-0.0095 ± 0.0064
3C:CXCL8/IL-8,0.0075 ± 0.013,-0.008 ± 0.0042,0.016 ± 0.03,0.02 ± 0.044,-0.0985 ± 0.1,-0.021 ± 0.023,-0.0045 ± 0.021,0.012 ± 0.03,-0.014 ± 0.064,-0.01 ± 0.065,0.0365 ± 0.079,-0.02 ± 0.0085,-0.0125 ± 0.00071,0.0085 ± 0.046,-0.0055 ± 0.015,0.007 ± 0.013,0.043 ± 0.034,0.013 ± 0.014,0.014 ± 0.04,0.021 ± 0.081
BF4T:MMP-3,-0.004 ± 0.0014,0.0205 ± 0.019,0.036 ± 0.0071,-0.0145 ± 0.025,0.0505 ± 0.023,-0.0135 ± 0.015,-0.021 ± 0.03,-0.0185 ± 0.0035,0.004 ± 0.0057,0.017,0.0635 ± 0.035,-0.0075 ± 0.042,-0.0185 ± 0.044,0.0095 ± 0.0078,-0.0095 ± 0.013,-0.0015 ± 0.029,0.042 ± 0.1,-0.01 ± 0.045,-0.0285 ± 0.057,-0.0095 ± 0.037
BT:Secreted IgG,-0.0085 ± 0.015,-0.0455 ± 0.057,-0.132 ± 0.016,-0.002 ± 0.016,-1.16 ± 0.3,0.015 ± 0.017,-0.002 ± 0.0071,-0.025 ± 0.018,0.0195 ± 0.023,-0.0165 ± 0.043,-0.0315 ± 0.081,0.0485 ± 0.03,0.039 ± 0.034,-0.0175 ± 0.04,-0.0115 ± 0.0035,-0.0005 ± 0.03,-0.059 ± 0.013,-0.0135 ± 0.06,0.0085 ± 0.04,-0.054 ± 0.021
BF4T:CD54/ICAM-1,-0.0105 ± 0.005,-0.0165 ± 0.0035,-0.0295 ± 0.0092,0.0495 ± 0.016,0.032 ± 0.0042,-0.025 ± 0.034,-0.0195 ± 0.019,-0.026 ± 0.027,-0.004 ± 0.0057,0.0045 ± 0.013,0 ± 0.0057,0.0025 ± 0.0021,-0.0045 ± 0.00071,0.0075 ± 0.0021,-0.0095 ± 0.021,-0.007 ± 0.0057,-0.0115 ± 0.013,-0.005 ± 0.0057,0.008 ± 0.0028,-0.0005 ± 0.0035
BF4T:MMP-1,0.009 ± 0.021,0.0065 ± 0.0092,0.006 ± 0.0042,0.015,0.0095 ± 0.0078,0.0015 ± 0.013,-0.007 ± 0.0028,0.014 ± 0.021,0.0045 ± 0.005,0.0035 ± 0.0035,0.009 ± 0.011,0.0115 ± 0.0092,0.0025 ± 0.005,0.011 ± 0.0085,-0.0035 ± 0.022,0.0155 ± 0.026,0.027 ± 0.03,0.0115 ± 0.022,0.013 ± 0.028,0.0135 ± 0.026
BT:sIL-2,-0.0455 ± 0.11,0.031 ± 0.028,-0.0025 ± 0.042,-0.046 ± 0.03,-0.339 ± 0.076,0.017 ± 0.018,-0.042 ± 0.037,0.027 ± 0.12,0.0065 ± 0.052,-0.0005 ± 0.1,-0.0005 ± 0.098,0.034 ± 0.079,0.022 ± 0.0085,-0.0465 ± 0.053,0.0175 ± 0.042,0.007 ± 0.016,0.0175 ± 0.035,0.002 ± 0.059,-0.0075 ± 0.035,0.033 ± 0.042
BT:sIL-17A,-0.242 ± 0.26,-0.141 ± 0.05,-0.409 ± 0.18,0.122 ± 0.083,-0.631 ± 0.21,-0.0765 ± 0.18,0.001 ± 0.11,-0.0075 ± 0.064,-0.004 ± 0.018,-0.0905 ± 0.12,-0.089 ± 0.2,0.0455 ± 0.064,-0.035 ± 0.038,-0.184 ± 0.0071,0.027 ± 0.05,0.052 ± 0.096,-0.0105 ± 0.21,0.144 ± 0.073,-0.0645 ± 0.022,-0.128 ± 0.16
LPS:CD69,0.0025 ± 0.0021,-0.0095 ± 0.0064,-0.0305 ± 0.005,-0.134 ± 0.0028,-0.226 ± 0.0042,-0.019 ± 0.047,0.0115 ± 0.042,-0.01 ± 0.052,-0.0185 ± 0.0064,-0.0025 ± 0.0035,-0.032 ± 0.0099,-0.045 ± 0.017,-0.0255 ± 0.036,0.002 ± 0.0071,-0.0005 ± 0.023,-0.006 ± 0.0042,-0.0145 ± 0.046,0.0335 ± 0.083,0.033 ± 0.042,0.0025 ± 0.029
BF4T:tPA,-0.0045 ± 0.013,0.0025 ± 0.0021,-0.0075 ± 0.025,0.0595 ± 0.0064,0.067 ± 0.0028,-0.019 ± 0.0085,-0.023 ± 0.0014,-0.0145 ± 0.013,0.0015 ± 0.005,-0.0065 ± 0.018,0.036 ± 0.047,-0.017 ± 0.023,-0.027 ± 0.021,0.003 ± 0.014,-0.036 ± 0.017,-0.015 ± 0.016,0.0145 ± 0.057,0.0015 ± 0.021,0.003 ± 0.013,0.0045 ± 0.0078
BF4T:CXCL8/IL-8,0.0275 ± 0.0092,0.01 ± 0.0057,0.0465 ± 0.0092,-0.015 ± 0.014,-0.004 ± 0.0014,0.018 ± 0.018,0.0065 ± 0.0078,0.013 ± 0.037,0.0175 ± 0.021,-0.009 ± 0.058,0.016 ± 0.058,0.039 ± 0.021,0.009 ± 0.014,0.039 ± 0.0085,0.0025 ± 0.0064,0.0145 ± 0.005,0.0235 ± 0.028,0.0225 ± 0.029,-0.0005 ± 0.029,0 ± 0.023
4H:CCL2/MCP-1,-0.0145 ± 0.00071,-0.015 ± 0.0028,0.0165 ± 0.026,-0.007 ± 0.0099,-0.159 ± 0.044,-0.048 ± 0.033,-0.0435 ± 0.025,0.0125 ± 0.023,0.0085 ± 0.015,-0.008 ± 0.0028,0.0145 ± 0.029,0.0075 ± 0.028,-0.0195 ± 0.018,0.01 ± 0.044,0,-0.0255 ± 0.005,0.0155 ± 0.059,-0.037 ± 0.041,-0.03 ± 0.013,0.008 ± 0.055
